Experimental data as given in US20210251218A1, “BIO-HERBICIDE BASED ON ESSENTIAL OIL” (Université de Liège, priority 2018, published 2021).

System: Bryophyte (adult stage)
Assay: Essay 1: post-emergence activity on Bryophyte
Type: in vivo
Conditions: spraying 100 ml/m^2; 7 days after treatment; score 0 = healthy plant, 6 = dead plant; FIG. 3
Method: In order to assess the post-emergence activity of compositions according to the invention on Bryophyte (adult stage), different compositions according to the invention (HE1 and HE2—see Table 3) were tested by spraying (100 ml/m^2) on Bryophytes (adult stage). Pelargonic acid at a concentration of 30 g/L (PA) (Compo®) was used as a positive control and a composition without the active substance (essential oil) (SSA) was also tested. [table] For Bryophytes, it is recognized that the score of 0 represents a healthy and undamaged plant while a score of 6 represents a dead plant. These scores were determined 7 days after treatment with the different compositions.

`CCCCCCCCC(=O)O` [pelargonic acid] showed a toxicity score of 6.
